Measured values: patent publication US20090233998A1, “Desmosdumotins, the Method for Preparing the Same and Use as Anti-Tumor or Anti-AIDS Agents” (priority 2004, published 2009)
Values after ≈ are worked out from the molar mass of the structure shown. Read-outs that look alike come from different tables or passages of the source.

Columns and labels:
[1] = system: 1A9 (human ovarian carcinoma); test: in vitro cytotoxicity against human tumor cell replication, 1A9; format: cell-based; details: for EC50: read-out: ED50 (the source's name)
Excerpt: (§1) Cancer cell used in cytotoxicity evaluation in vitro were all from human, including lung cancer cell line (A549), breast cancer cell line (MCF-7), ovarian cancer cell line (1A9), epidermoid nasopharyngeal carcinoma cell line (KB), vincristine-resistant cells (KB-VIN), melanoma cancer cell line (SK-MEL-2), ileocecal cancer cell line (HCT-8), renal carcinoma cell line (CAKI), bone cancer cell line (HOS), et al. the anti-cancer ability of the compound represented by half-effective amount (ED50). Control drug was V16 (Etoposide).

[2] = system: KB-VIN (vincristine-resistant KB cells, multi-drug resistant expressing P-glycoprotein); test: in vitro cytotoxicity against human tumor cell replication, KB-VIN; format: cell-based; details: for EC50: read-out: ED50 (the source's name)
Excerpt: as §1

[3] = system: KB (human epidermoid carcinoma of the nasopharynx); test: in vitro cytotoxicity against human tumor cell replication, KB; format: cell-based; details: for EC50: read-out: ED50 (the source's name)
Excerpt: as §1

[4] = system: A549 (human lung carcinoma); test: in vitro cytotoxicity against human tumor cell replication, A549; format: cell-based; details: for EC50: read-out: ED50 (the source's name)
Excerpt: as §1

human tumor cell lines = test: in vitro evaluation against a panel of several cancer cell lines; format: cell-based
Excerpt: as §1

[5] = system: MCF-7 (breast cancer cell line); test: in vitro cytotoxicity against human tumor cell replication, MCF-7; format: cell-based
Excerpt: as §1

in vivo = details: both sexes, Kunming, mouse, in vivo, Kunming mice, single vein injection, half male/half female
Method: (§2) The tumor activity […] testing represented by acute toxicity test and tumor-inhibiting testing of mice S180, Method: LD50 of desmosdumotin C to Kunming mice by vein route was obtained by the general acute toxicity test method. Sarcoma S180 was hypodermic inoculated to mice, drug administrated, compared drug group with control group, inhibition rate was calculated, P value show the statistical difference. […].

Kunming mice = test: in vivo; details: for Death Rate: Kunming, mouse, in vivo, iv, 14 days
Method: as §2

[6] = system: 1A9 (human ovarian carcinoma); details: IA9 ovarian cancer cell; background section; cited from earlier work
[7] = system: MCF-7 (breast cancer cell line); details: background section; cited from earlier work
Sarcoma S180 = test: tumor-inhibiting test of mice S180; format: in vivo, Kunming mice; details: for Inhibition Rate: S180 tumor growth
Method: as §2

[8] = system: KB (human epidermoid carcinoma of the nasopharynx); details: parent KB cell line; background section; cited from earlier work
[9] = system: KB-VIN (vincristine-resistant KB cells, multi-drug resistant expressing P-glycoprotein); details: background section; cited from earlier work

## COC1=C(C)C(=O)C(=C(O)C=Cc2ccc(Br)cc2)C(=O)C1(C)C [Compound 2, 2-[1′-Hydroxy-3-(4-bromophenyl)-allylidene]-5-methoxy-4,6,6-trimethylcyclohex-4-ene-1,3-dione]
[1]; Homo sapiens
  EC50: 2.8 µM
[2]; Homo sapiens, KBVIN
  EC50: 4.84 µM
[3]; Homo sapiens
  EC50: 4.33 µM
[4]; Homo sapiens
  EC50: 3.57 µM

## COC1=C(C)C(=O)C(=C(O)C=Cc2ccccc2OC)C(=O)C1(C)C [Compound 3, 2-[1′-Hydroxy-3-(2-methoxyphenyl)-allylidene]-5-methoxy-4,6,6-trimethylcyclohex-4-ene-1,3-dione]
[1]; Homo sapiens
  EC50: 8.16 µM
Human tumor cell lines; fold of desmosdumotin C
  activity relative to desmosdumotin C: 4 times
[2]; Homo sapiens, KBVIN
  EC50: 8.45 µM
[3]; Homo sapiens
  EC50: 10.5 µM
[4]; Homo sapiens
  EC50: 8.74 µM

## COC1=C(C)C(=O)C(=C(O)C=Cc2cccc(OC)c2)C(=O)C1(C)C [Compound 4, 2-[1′-Hydroxy-3-(3-methoxyphenyl)-allylidene]-5-methoxy-4,6,6-trimethyl-cyclohex-4-ene-1,3-dione]
[1]
  ED50: 0.7 µg/mL (≈ 2.04 µM)
[1]; Homo sapiens
  EC50: 8.45 µM
Human tumor cell lines; versus desmosdumotin C
  anti-tumor activity compared with the leading compound: more significant anti-tumor activity than the leading compound
[2]; Homo sapiens, KBVIN
  EC50: 6.99 µM
[3]; Homo sapiens
  EC50: 9.62 µM
[4]; Homo sapiens
  EC50: 8.16 µM

## COC1=C(C)C(=O)C(=C(O)C=Cc2ccc(OC)cc2)C(=O)C1(C)C [Compound 5, 2-[1′-Hydroxy-3-(4-methoxyphenyl)-allylidene]-5-methoxy-4,6,6-trimethyl-cyclohex-4-ene-1,3-dione]
[1]; Homo sapiens
  EC50: 7.28 µM
[2]; Homo sapiens, KBVIN
  EC50: 8.16 µM
[3]; Homo sapiens
  EC50: 9.62 µM
[4]; Homo sapiens
  EC50: 6.99 µM

## COC1=C(C)C(=O)C(=C(O)C=Cc2ccc(O)cc2)C(=O)C1(C)C [Compound 6, 2-[1′-Hydroxy-3-(4-hydroxyphenyl)-allylidene]-5-methoxy-4,6,6-trimethyl-cyclohex-4-ene-1,3-dione]
[1]; Homo sapiens
  EC50: 8.86 µM
[2]; Homo sapiens, KBVIN
  EC50: 11.6 µM
[3]; Homo sapiens
  EC50: 11.6 µM
[4]; Homo sapiens
  EC50: 9.48 µM

## COC1=C(C)C(=O)C(=C(O)C=Cc2ccco2)C(=O)C1(C)C [Compound 7, 2-(3′-Furan-2″-yl-1′-hydroxy-allylidene)-5-methoxy-4,6,6-trimethyl-cyclohex-4-ene-1,3-dione]
[1]
  EC50: 26.1 µM
[2]
  EC50: 29 µM
[3]
  EC50: 32.7 µM
[4]
  EC50: 33 µM

## COC1=C(C)C(=O)C(=C(O)C=Cc2cccs2)C(=O)C1(C)C [Compound 8, 2-(1′-Hydroxy-3′-thiophen-2″-yl-allylidene)-5-methoxy-4,6,6-trimethyl-cyclohex-4-ene-1,3-dione]
[1]
  EC50: 12.5 µM
[2]
  EC50: 10.7 µM
[3]
  EC50: 17.2 µM
[4]
  EC50: 14.1 µM

## COC1=C(C)C(=O)C(=C(O)C=Cc2nccs2)C(=O)C1(C)C [Compound 9]
[1]
  EC50: 10.9 µM
[2]
  EC50: 9.37 µM
[3]
  EC50: 13.4 µM
[4]
  EC50: 10.9 µM

## CC1=C(O)C2=C(OC(c3ccccc3)CC2=O)C(C)(C)C1=O (stereo not drawn) [Compound 11, 7-hydroxyl-6,8,8-trimethyl-2-phenyl-2,3-dihydrogen-8H-chromene-4,5-dione]
[1]
  ED50: 8.0 µg/mL (≈ 26.8 µM)
[5]
  ED50: >5 µg/mL
[2]
  ED50: 7.5 µg/mL (≈ 25.1 µM)
[3]
  ED50: 10.5 µg/mL (≈ 35.2 µM)
[4]
  ED50: 13.5 µg/mL (≈ 45.3 µM)

## CC1=C(O)C(C)(C)C(=O)/C(=C(O)\C=C\c2ccccc2)C1=O [Compound 12, 2-[(1′-hydroxy-2′-ene-3′-phenyl)propenylene]-5-hydroxy-4,6,6-trimethyl-1,3-cyclohexene(4,5)-dione]
[1]
  ED50: 8.0 µg/mL (≈ 26.8 µM)
[5]
  ED50: > 5 µg/mL
[2]
  ED50: 6.5 µg/mL (≈ 21.8 µM)
[3]
  ED50: 10.5 µg/mL (≈ 35.2 µM)
[4]
  ED50: 9.0 µg/mL (≈ 30.2 µM)

## COC1=C(C)C(=O)C(=C(O)C=Cc2ccccc2)C(=O)C1(C)C [Compound 13, 2-[(1′-hydroxy-2′-ene-3′-phenyl)propenylene)-5-methoxy-4,6,6-trimethyl-1,3-cyclohexene (4,5)-diketone]
[1]
  ED50: 3.63 µg/mL (≈ 11.6 µM)
[5]
  ED50: > 5 µg/mL
[2]
  ED50: 2.9 µg/mL (≈ 9.28 µM)
[3]
  ED50: 4.1 µg/mL (≈ 13.1 µM)
[4]
  ED50: > 5 µg/mL

## COC1=CC(=O)c2c(oc(-c3ccccc3)cc2=O)C1(C)C [Compound 14, 7-methoxy-8,8-dimethyl-2-phenyl-8H-chromene-4,5-dione]
[1]
  ED50: 0.7 µg/mL (≈ 2.36 µM)
[3]
  ED50: 1.8 µg/mL (≈ 6.07 µM)
[4]
  ED50: 2.0 µg/mL (≈ 6.75 µM)

## CC1=C(O)C(C)(C)c2oc(-c3ccccc3)cc(=O)c2C1=O [Desmosdumotin B, 7-hydroxyl-6,8,8-trimethyl-2-phenyl-8H-chromene-4,5-dione]
[1]
  ED50: 36.0 µg/mL (≈ 121 µM)
[5]
  ED50: >5 µg/mL
[2]
  ED50: 2.0 µg/mL (≈ 6.75 µM)
[3]
  ED50: >40 µg/mL
[4]
  ED50: 28.0 µg/mL (≈ 94.5 µM)

## COC1=C(C)C(=O)/C(=C(O)/C=C/c2ccccc2)C(=O)C1(C)C [Desmosdumotin C, 2-[(1′-hydroxy-2′-ene-3′-phenyl)propenylene]-5-methoxy-4,6,6-trimethyl-1,3-cyclohexene (4,5)-dione]
In vivo; read-out: LD50
  LD50: > 46 mg/kg
In vivo; read-out: LD50 (95% CL)
  LD50: 39.8 to 53.1 mg/kg
Kunming mice; Kunming mice, single vein injection, half male/half female
  LD50: 46.0 mg/kg
Kunming mice; both, 32.8 mg/kg
  Death Rate: 0%
Kunming mice; both, 40.96 mg/kg
  Death Rate: 40%
Kunming mice; both, 51.2 mg/kg
  Death Rate: 70%
Kunming mice; both, 64 mg/kg
  Death Rate: 90%
Kunming mice; both, 80 mg/kg
  Death Rate: 100%
Kunming mice; female, 32.8 mg/kg
  Death Rate: 0%
Kunming mice; female, 40.96 mg/kg
  Death Rate: 40%
Kunming mice; female, 51.2 mg/kg
  Death Rate: 80%
Kunming mice; female, 64 mg/kg
  Death Rate: 80%
Kunming mice; female, 80 mg/kg
  Death Rate: 100%
Kunming mice; male, 32.8 mg/kg
  Death Rate: 0%
Kunming mice; male, 40.96 mg/kg
  Death Rate: 40%
Kunming mice; male, 51.2 mg/kg
  Death Rate: 60%
Kunming mice; male, 64 mg/kg
  Death Rate: 100%
Kunming mice; male, 80 mg/kg
  Death Rate: 100%
[6]
  ED50: < 4.0 µg/mL
[1]; Homo sapiens
  EC50: 12.8 µM
[5]; Homo sapiens, MCF7, read-out: ED50 (the source's name)
  EC50: 12.8 µM
[7]
  ED50: < 3.8 µg/mL
[2]; Homo sapiens, KBVIN
  EC50: 17.9 µM
Sarcoma S180; S180, 2.5 mg/kg iv × 10qd
  Tumor Weight X ± SD: 1.99 ± 0.18
Sarcoma S180; S180, 5 mg/kg iv × 10qd
  Tumor Weight X ± SD: 1.62 ± 0.22
Sarcoma S180; S180, 10 mg/kg iv × 10qd
  Tumor Weight X ± SD: 1.51 ± 0.21
Sarcoma S180; 2.5 mg/kg iv × 10qd
  Inhibition Rate: 30.18%
Sarcoma S180; 5 mg/kg iv × 10qd
  Inhibition Rate: 43.16%
Sarcoma S180; 10 mg/kg iv × 10qd
  Inhibition Rate: 47.02%
[3]; Homo sapiens
  EC50: 20.8 µM
[8]
  ED50: < 6.5 µg/mL
[9]
  ED50: < 5.6 µg/mL
